Measurements reported in publication PMC5736782, “The Differential Absorption of a Series of P-Glycoprotein Substrates in Isolated Perfused Lungs from Mdr1a/1b Genetic Knockout Mice can be Attributed to Distinct Physico-Chemical Properties: an Insight into Predicting Transporter-Mediated, Pulmonary Specific Disposition” (Pharmaceutical Research, 2017).

Experiments:
[1] = design: method as in PMID 12761811; conditions: cited from earlier work
Caco-2 cell model = system: Caco-2 cell model; design: method as in PMID 12761811; conditions: cited from earlier work
[2] = system: P-glycoprotein (Mdr1a/Mdr1b) in isolated perfused mouse lung; assay: Isolated perfused mouse lung (IPML) airway-to-perfusate absorption, Mdr1a/1b (+/+) vs (−/−); conditions: for Mdr1a/1b (+/+) ‘F’ estimate by model fit [95% CI) / Mdr1a/1b (-/-) ‘F’ estimate by model fit [95% CI) / Ratio AUCs (-/-) : (+/+) / Mdr1a/1b (+/+) % Deposited Dose absorbed / Mdr1a/1b (-/-) % Deposited Dose absorbed: male, mouse, 50 μM; for Mdr1a/1b (+/+) % Deposited Dose absorbed / Mdr1a/1b (-/-) % Deposited Dose absorbed: 30 min
Procedure: The atria and the lower half of the heart were cut to allow the free flow of perfusate. The lungs were removed and suspended vertically in a custom water-jacketed glass thorax (Radleys, Essex, UK) maintained at 37°C.
Following dosing of compound into the IPML airways serial samples (250 μL) were collected for bioanalysis from the 10 mL recirculating perfusate reservoir. Each sample collected from the reservoir was replaced with an equal volume of fresh warmed, oxygenated perfusate. Upon termination of the experiment the dose solutions, apparatus washings and perfusate samples were collected for mass balance calculations enabling determination of the actual total dose delivered to the lungs.
Radioactive compounds were directly analysed by liquid scintillation counting. Volumes of 50 μL perfusate samples were mixed with 3 mL of Scintisafe 3 Liquid Scintillation Fluid (Fisher, UK) and transferred to vials for scintillation counting using a TriCarb 2900TR (Packard Bioscience, USA).
After accounting for the mass of compound removed at each sample point, plots of the cumulative ‘%deposited dose absorbed’ versus ‘time’ were generated and subject to nonlinear regression analysis according to a first-order absorption one-compartment accumulating model (Eq. 1) to generate estimates for the extent (F) and rate (Ka) of absorption from the IPML airways to the recirculating perfusate.
The data was also subject to standard non-compartmental analysis, specifically Area Under Curve (AUC0–30 min) of ‘%deposited dose absorbed’ versus ‘time’ (units: %Dose.min) and reflecting for the exclusively accumulating perfusate ‘compartment’ the exposure arising from the IPML absorption process alone.

[3] = system: P-gp (Mdr1a/1b) in mouse intestinal segments; assay: Ussing chamber intestinal permeability, ileal segments Mdr1a/1b (+/+) vs (−/−); conditions: for Mdr1a/1b (−/−) Permeability coefficient: P-gp knockout intestinal segments; for Mdr1a/1b (−/−) Permeability coefficient / Mdr1a/1b (+/+) Permeability coefficient: mucosal to serosal, 50 μM, 180 min; for Ratio Permeability (−/−): (+/+): intestinal Papp KO:WT; for Mdr1a/1b (+/+) Permeability coefficient: wild-type intestinal segments
Procedure: The bathing fluid for both mucosal and serosal surfaces (3 mL volume in each chamber) comprised oxygenated Krebs-Henseleit buffer maintained at 37°C (heating block) under stirred conditions (gas flow manifold). […] Any intestinal segments presenting an initial TEER of lower than 80 Ω.cm^2 were discarded prior to the experiment, likewise any segments whose TEER decreased by more than 10% over the course of the experiment were excluded.
Thereafter permeability coefficients were determined according to Eq. 4:4 ρ=dM/dt/A^∗C0

[4] = Immobilised artificial membrane (IAM) chromatography; assay type: physicochemical; conditions: extrapolated to 100% water; mean of four experiments
Procedure: IAM chromatography provided an experimental measure of substrate membrane affinity and phospholipid interaction. The IAM column (Regis Technologies Inc., Hichrom, Reading, UK; IAM.PC.DD2 10 cm x 4.6 mm ID column) was run under isocratic eluting conditions with the retention of all compounds determined under three mobile phase conditions: 10%, 20% and 30% acetonitrile in water, and from which the theoretical retention time in 100% water was calculated by linear regression. LogK^IAM values were calculated according to Eq. 2:2 LogK^IAM=LogTr−T0/T0
where Tr and T0 are respectively the retention times of the substrate in 100% water and of the unretained compound, i.e. eluting within the solvent front of 75 s in all experiments.

mouse Bcrp = target: T1, mouse Bcrp (Mus musculus, UniProt Q7TMS5); assay: Gentest ABC transporter membrane ATPase assay; assay type: biochemical; conditions: for Vmax: ATPase, 0 indicates no enzyme turnover
T1 construct: purchased Corning (Gentest), Germany
T1 sequence (Q7TMS5 1-657): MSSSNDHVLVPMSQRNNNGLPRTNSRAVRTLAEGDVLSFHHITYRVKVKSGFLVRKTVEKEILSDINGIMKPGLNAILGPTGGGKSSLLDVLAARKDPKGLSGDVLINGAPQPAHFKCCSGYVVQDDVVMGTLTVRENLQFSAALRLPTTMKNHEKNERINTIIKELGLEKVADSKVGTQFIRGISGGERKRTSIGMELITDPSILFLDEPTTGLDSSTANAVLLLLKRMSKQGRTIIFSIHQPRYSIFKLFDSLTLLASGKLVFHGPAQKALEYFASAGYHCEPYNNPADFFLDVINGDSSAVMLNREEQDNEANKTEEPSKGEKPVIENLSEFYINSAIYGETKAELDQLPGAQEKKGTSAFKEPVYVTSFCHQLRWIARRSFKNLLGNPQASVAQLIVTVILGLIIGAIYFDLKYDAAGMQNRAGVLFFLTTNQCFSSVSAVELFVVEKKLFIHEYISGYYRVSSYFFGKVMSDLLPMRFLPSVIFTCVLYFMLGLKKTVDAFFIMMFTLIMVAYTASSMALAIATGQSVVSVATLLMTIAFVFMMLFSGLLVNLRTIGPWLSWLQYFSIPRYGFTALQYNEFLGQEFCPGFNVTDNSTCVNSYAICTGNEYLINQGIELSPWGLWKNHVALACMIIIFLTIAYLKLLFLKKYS

[5] = Multi-lamellar liposome vesicle (MLV) partitioning; assay type: physicochemical; conditions: (C0−CS)/C0, 1 μg/mL, 4 h, 37°C, PBS pH 7.4
Procedure: MLVs were formed as previously described ([20]). Briefly, solutions of 8 mg phosphatidylcholine and 2 mg phosphatidylglycerol in 10 mL chloroform were completely dried to a lipid film (rotation under vacuum).
These preparations were then incubated at 37°C for 4 h under shaking conditions to allow equilibration of compound between the lipid and aqueous fractions. The MLVs were then pelleted and 100 μL of supernatant removed for analysis by radiometric or LC-MS/MS methods as described above. Partitioning into the MLVs was determined according to Eq. 3:3 MLVpartitioning=C0−CS/C0
where C0 is the initial compound concentration (1 μg/mL) and CS is the compound concentration present in the aqueous supernatant at the end of 4 h incubation.

mouse Mdr1b = mouse Mdr1b (Mus musculus, UniProt P06795); assay: Gentest ABC transporter membrane ATPase assay; conditions: 0–300 μM, 30 min, 37°C
Sequence of mouse Mdr1b (P06795 whole entry): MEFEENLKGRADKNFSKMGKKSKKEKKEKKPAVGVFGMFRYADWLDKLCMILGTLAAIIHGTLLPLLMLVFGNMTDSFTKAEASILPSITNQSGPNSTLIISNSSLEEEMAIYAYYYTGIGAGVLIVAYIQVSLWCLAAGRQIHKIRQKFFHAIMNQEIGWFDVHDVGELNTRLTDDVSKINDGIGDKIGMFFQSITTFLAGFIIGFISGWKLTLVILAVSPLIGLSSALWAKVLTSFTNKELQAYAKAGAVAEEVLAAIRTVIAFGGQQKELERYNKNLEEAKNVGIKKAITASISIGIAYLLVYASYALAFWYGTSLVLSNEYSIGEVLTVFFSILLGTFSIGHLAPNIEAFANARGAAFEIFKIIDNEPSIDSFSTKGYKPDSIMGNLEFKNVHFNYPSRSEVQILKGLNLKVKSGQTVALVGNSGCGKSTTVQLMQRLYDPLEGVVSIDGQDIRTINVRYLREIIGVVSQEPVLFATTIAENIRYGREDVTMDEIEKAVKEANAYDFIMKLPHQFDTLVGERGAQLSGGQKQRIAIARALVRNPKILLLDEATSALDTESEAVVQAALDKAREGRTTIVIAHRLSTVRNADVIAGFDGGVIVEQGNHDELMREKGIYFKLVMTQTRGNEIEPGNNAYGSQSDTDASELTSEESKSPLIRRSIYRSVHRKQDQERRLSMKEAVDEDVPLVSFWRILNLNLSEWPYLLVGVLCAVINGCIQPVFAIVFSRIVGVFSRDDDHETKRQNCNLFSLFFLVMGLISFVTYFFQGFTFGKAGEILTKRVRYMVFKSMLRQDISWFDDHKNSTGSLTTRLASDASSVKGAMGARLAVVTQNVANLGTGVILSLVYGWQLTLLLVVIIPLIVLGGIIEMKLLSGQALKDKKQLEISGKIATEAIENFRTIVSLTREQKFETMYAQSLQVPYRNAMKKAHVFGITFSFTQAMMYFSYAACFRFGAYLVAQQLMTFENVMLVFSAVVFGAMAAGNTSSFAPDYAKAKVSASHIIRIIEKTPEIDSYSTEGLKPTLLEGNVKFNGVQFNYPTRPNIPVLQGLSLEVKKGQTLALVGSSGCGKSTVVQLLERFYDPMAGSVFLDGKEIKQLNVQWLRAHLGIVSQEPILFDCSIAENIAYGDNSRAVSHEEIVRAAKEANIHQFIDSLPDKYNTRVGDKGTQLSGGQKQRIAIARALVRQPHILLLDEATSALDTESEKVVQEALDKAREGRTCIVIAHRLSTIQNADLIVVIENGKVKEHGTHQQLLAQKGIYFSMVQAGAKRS
Excerpt: (§1) The Gentest ATPase assay (Corning, Germany) was used to investigate the binding kinetics of the panel of P-gp substrates against membranes constituted to display human MDR1, mouse Mdr1a, mouse Mdr1b and mouse Bcrp. The assays measure the accumulation of inorganic phosphate (absorbance at 800 nm) produced in the breakdown of ATP to ADP. […] The assays were used in accordance with the manufacturer’s protocol to calculate (GraphPad Prism) the Michaelis-Menten parameters Km and VMAX. For the assay test compounds were serially diluted to produce an assay concentration range of 0–300 μM with the kinetics of ATP turnover examined over 30 min at 37°C.

mouse Mdr1a = mouse Mdr1a (Mus musculus, UniProt P21447); assay: Gentest ABC transporter membrane ATPase assay; conditions: 0–300 μM, 30 min, 37°C
Sequence of mouse Mdr1a (P21447 whole entry): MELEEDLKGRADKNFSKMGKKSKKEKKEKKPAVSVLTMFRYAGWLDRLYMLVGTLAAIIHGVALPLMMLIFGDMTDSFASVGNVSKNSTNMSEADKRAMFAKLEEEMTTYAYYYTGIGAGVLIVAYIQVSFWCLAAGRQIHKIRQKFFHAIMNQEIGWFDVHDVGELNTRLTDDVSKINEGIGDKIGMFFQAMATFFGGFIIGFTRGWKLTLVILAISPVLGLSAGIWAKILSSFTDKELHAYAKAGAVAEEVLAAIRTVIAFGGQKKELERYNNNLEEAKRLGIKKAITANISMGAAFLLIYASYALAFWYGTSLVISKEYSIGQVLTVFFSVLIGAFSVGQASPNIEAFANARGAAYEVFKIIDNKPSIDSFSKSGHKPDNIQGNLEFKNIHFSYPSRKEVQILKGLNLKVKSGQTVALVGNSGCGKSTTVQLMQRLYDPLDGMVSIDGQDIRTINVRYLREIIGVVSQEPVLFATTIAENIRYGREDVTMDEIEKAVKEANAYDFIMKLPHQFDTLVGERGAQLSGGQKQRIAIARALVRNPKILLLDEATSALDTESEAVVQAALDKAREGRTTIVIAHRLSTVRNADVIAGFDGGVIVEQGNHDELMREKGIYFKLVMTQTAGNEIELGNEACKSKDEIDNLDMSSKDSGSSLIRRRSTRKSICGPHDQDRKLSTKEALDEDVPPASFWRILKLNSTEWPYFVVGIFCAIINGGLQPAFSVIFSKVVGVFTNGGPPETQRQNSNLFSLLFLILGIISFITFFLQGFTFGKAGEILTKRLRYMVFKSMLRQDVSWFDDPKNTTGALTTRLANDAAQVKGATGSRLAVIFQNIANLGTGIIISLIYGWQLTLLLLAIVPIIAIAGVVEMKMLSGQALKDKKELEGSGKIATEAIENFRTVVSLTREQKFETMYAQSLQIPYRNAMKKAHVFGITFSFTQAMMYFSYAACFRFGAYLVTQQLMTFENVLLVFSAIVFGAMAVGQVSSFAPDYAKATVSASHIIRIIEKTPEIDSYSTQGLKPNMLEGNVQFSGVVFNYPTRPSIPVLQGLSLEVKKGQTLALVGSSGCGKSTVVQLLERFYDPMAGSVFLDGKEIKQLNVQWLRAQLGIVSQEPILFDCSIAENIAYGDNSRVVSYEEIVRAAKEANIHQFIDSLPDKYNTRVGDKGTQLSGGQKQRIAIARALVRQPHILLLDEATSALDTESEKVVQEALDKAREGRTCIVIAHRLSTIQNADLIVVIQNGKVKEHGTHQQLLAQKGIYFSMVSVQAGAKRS
Excerpt: as §1

human MDR1 = human MDR1 (Homo sapiens, UniProt P08183); assay: Gentest ABC transporter membrane ATPase assay; conditions: ATPase, 0–300 μM, 30 min, 37°C
Sequence of human MDR1 (P08183 whole entry): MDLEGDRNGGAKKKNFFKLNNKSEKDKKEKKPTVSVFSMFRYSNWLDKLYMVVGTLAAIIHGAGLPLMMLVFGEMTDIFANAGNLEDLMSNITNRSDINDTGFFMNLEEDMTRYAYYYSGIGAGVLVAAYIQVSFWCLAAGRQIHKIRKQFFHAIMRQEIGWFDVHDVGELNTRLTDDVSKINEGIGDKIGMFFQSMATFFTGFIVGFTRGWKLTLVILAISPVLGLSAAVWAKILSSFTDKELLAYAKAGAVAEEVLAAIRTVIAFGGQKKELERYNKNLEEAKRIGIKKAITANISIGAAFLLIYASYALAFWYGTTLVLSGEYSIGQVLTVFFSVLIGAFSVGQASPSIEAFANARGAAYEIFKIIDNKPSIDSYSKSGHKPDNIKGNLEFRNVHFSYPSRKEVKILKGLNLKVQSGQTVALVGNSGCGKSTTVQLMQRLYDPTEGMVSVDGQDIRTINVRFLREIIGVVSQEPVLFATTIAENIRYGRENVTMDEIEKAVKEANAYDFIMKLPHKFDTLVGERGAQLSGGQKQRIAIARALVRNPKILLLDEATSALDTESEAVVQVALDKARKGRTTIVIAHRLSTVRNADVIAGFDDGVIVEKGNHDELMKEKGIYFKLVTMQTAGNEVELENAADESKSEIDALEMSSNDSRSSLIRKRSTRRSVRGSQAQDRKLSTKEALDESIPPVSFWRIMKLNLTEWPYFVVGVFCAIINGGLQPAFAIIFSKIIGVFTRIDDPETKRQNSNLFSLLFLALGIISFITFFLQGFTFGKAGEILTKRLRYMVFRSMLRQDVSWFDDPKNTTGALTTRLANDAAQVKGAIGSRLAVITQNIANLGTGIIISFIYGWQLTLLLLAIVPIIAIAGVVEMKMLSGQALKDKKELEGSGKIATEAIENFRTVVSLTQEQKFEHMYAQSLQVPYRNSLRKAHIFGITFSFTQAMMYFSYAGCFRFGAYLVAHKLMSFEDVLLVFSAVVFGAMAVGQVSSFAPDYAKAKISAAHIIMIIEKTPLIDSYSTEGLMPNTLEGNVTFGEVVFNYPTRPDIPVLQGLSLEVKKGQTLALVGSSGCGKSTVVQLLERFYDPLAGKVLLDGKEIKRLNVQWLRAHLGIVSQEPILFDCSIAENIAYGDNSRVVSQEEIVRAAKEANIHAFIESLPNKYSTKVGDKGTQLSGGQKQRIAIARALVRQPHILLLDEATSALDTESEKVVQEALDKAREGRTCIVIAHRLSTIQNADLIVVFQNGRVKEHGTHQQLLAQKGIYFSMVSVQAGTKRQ
Excerpt: as §1

[6] = design: method as in PMID 4654354; conditions: cited from earlier work

Molecule	Group (impact of Mdr1a/1b knockout on IPML absorption) [2]	Mdr1a/1b (+/+) ‘F’ estimate by model fit [95% CI) [2]	Mdr1a/1b (-/-) ‘F’ estimate by model fit [95% CI) [2]	Mdr1a/1b (+/+) % Deposited Dose absorbed [2]	Mdr1a/1b (-/-) % Deposited Dose absorbed [2]	Mdr1a/1b (−/−) Permeability coefficient [3]	Mdr1a/1b (+/+) Permeability coefficient [3]	LogK^IAM [4]	Vmax (mouse Bcrp)	MLV Partitioning [5]	further results
cyanocobalamin											permeability across the lung [1]: high permeability; Papp (Caco-2 cell model): < 1 ×10⁻⁶ cm/s
O=C(O)c1cc(=O)c2c(OCC(O)COc3cccc4oc(C(=O)O)cc(=O)c34)cccc2o1 [cromolyn]											permeability across the lung [1]: high permeability; Papp (Caco-2 cell model): < 1 ×10⁻⁶ cm/s
CN1CCC[C@@H]1Cc1c[nH]c2ccc(CCS(=O)(=O)c3ccccc3)cc12 [Eletriptan, eletriptan]	GROUP B	18.5 [16.5 to 20.5]	25.8 [23.6 to 27.9]	17.9%	26.6%	11.04 ± 2.17 cm/s (x10^−6)	4.90 ± 2.51 cm/s (x10^−6)	1.46	0 µM/min	0.94	Ratio AUCs (-/-) : (+/+) [2]: 1.39; Ratio Permeability (−/−): (+/+) [3]: 2.26
O=C1c2c(O)ccc(O)c2C(=O)c2c(NCCNCCO)ccc(NCCNCCO)c21 [Mitoxantrone, mitoxantrone]	GROUP A	26.4 [21.9 to 30.9]	24.9 [20.8 to 28.9]	25.1%	23.3%	13.70 ± 2.69 cm/s (x10^−6)	4.69 ± 1.06 cm/s (x10^−6)	1.13	4.79 µM/min	0.59	Vmax (mouse Mdr1b): 35.0 µM/min; interaction with Bcrp (ATP turnover) (mouse Bcrp; mouse Bcrp membrane model): showed evidence of interactions with Bcrp; Vmax (mouse Mdr1a): 27.5 µM/min
COc1ccc(C[C@H](N)C(=O)N[C@H]2[C@@H](O)[C@H](n3cnc4c(N(C)C)ncnc43)O[C@@H]2CO)cc1 [Puromycin, puromycin]	GROUP A	48.2 [43.7 to 52.8]	56.1 [48.1 to 64.1]	46.9%	49.3%	14.95 ± 2.33 cm/s (x10^−6)	5.83 ± 2.38 cm/s (x10^−6)	1.31	0 µM/min	0.62	Vmax (mouse Mdr1b): 31.5 µM/min; Vmax (human MDR1): 19.6 µM/min; Ratio AUCs (-/-) : (+/+) [2]: 1.01; Ratio Permeability (−/−): (+/+) [3]: 2.56; Vmax (mouse Mdr1a): 16.5 µM/min
CCN(CC)CCCC(C)Nc1ccnc2cc(Cl)ccc12 (centres unmarked) [Chloroquine, chloroquine]						23.39 ± 4.18 cm/s (x10^−6)		1.43			
OC[C@@H](O)[C@@H](O)[C@H](O)[C@H](O)CO [mannitol]											Mdr1a/1b (+/+) % Deposited Dose absorbed ([2]; FVB/B6 Mdr1a/1b(+/+) wild-type): 44.3 ± 9.4%; Mdr1a/1b (-/-) % Deposited Dose absorbed ([2]; FVB/B6 Mdr1a/1b(−/−) knockout): 43.2 ± 10.2%; absorbed from the lung [6]: 50 % of administered dose; absorbed from the small intestine [6]: < 2%
